Structures can show the parent of a compound that is named as a salt. Where two headings read alike, the source gives them in different places.
How the values were obtained:
[1] = molecular target: T1, NK-1 (Homo sapiens, UniProt P25103); experiment: NK1 radioligand binding assay ([125I]Substance P, U373 membranes); details: U373 cell membranes, 200 pM [125I]Substance P, 1 hour at room temperature
T1 construct: 30 ul/well of a 2×U373 membrane preparation
How it was run: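 Displacement of Kd-level [125I]Substance P (400 pM 2× stock) from U373 membranes in pH 7.5 Tris-Cl/MgCl2 buffer with protease inhibitors, 1 h, room temperature. Filtration onto GF/B, then scintillation counting. Percent inhibition, referenced to DMSO and L-733,060 wells, fitted by four-parameter equation to give IC50; triplicate plates.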

[2] = molecular target: hSERT (Homo sapiens, UniProt P31645); experiment: SERT radioligand binding assay ([125I]RTI-55, HEK-hSERT membranes); details: HEK-293 hSERT membranes, 260 pM [125I]RTI-55, 1 hour at room temperature
How it was run: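 IC50 values derive from four-parameter fits of triplicate percent-inhibition curves, with DMSO as 0% and fluoxetine as 100%. Binding used [125I]RTI-55 at its Kd (520 pM 2× solution) and HEK-hSERT membranes (15 ug/ml 2×) in Tris/NaCl/KCl, pH 7.5, 1 hour, room temperature. Filter-bound radioactivity was counted.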

T1 sequence (P25103 whole entry): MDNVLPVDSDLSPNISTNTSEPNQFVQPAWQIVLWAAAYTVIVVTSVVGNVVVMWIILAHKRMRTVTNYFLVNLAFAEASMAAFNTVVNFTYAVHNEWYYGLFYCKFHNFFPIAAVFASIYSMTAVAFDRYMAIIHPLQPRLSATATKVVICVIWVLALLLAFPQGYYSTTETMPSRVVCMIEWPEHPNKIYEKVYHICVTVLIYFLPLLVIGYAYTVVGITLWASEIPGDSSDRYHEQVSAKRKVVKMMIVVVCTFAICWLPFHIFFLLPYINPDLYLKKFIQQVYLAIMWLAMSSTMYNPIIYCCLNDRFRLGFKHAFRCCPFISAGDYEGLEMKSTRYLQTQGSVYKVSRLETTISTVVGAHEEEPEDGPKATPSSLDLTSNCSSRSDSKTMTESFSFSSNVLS
Sequence of hSERT (P31645 whole entry): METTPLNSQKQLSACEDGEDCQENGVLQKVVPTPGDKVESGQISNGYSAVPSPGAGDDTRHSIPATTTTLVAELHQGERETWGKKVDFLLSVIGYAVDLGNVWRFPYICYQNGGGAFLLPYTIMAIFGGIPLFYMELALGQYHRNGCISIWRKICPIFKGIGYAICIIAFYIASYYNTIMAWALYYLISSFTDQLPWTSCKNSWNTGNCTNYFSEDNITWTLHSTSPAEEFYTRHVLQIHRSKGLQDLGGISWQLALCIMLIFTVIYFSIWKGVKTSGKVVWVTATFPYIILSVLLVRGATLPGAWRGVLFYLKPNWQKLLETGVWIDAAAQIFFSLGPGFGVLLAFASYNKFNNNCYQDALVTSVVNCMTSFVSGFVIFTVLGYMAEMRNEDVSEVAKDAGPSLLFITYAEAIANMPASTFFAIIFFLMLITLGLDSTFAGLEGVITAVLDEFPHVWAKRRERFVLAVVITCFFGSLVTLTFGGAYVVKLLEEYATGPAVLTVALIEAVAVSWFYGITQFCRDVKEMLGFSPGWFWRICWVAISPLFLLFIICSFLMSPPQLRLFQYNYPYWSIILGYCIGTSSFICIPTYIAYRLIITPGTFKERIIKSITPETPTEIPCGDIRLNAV

Cc1n[nH]c2c(C(C)OCC3(c4ccccc4)CCNCC3)cc(C(F)(F)F)cc12 (racemic) [Example 43, (±)-3-Methyl-7-(1-((4-phenylpiperidin-4-yl)methoxy)ethyl)-5-(trifluoromethyl)-1H-indazole] was tested, and the IC50 [1] was 0.01 to 100 nM and the IC50 ([2]; read-out: SERT IC50) was 0.01 to 100 nM.

Compound Cc1cn(C)c2c(C(C)OCC3(c4ccc(F)cc4)CCN(C)CC3)cc(C(F)(F)F)cc12 (stereo not drawn) [Example 125, 7-(1-((4-(4-fluorophenyl)-1-methylpiperidin-4-yl)methoxy)ethyl)-1,3-dimethyl-5-(trifluoromethyl)-1H-indole] has an IC50 [1] of 0.01 to 100 nM and an IC50 ([2]; read-out: SERT IC50) of 0.01 to 100 nM.

With CN1CCC(COC(C(=O)N(C)C)c2cc(Cl)cc3cn[nH]c23)(c2ccc(F)cc2)CC1 (stereo not drawn) [Example 91, 2-(5-Chloro-1H-indazol-7-yl)-2-((4-(4-fluorophenyl)-1-methylpiperidin-4-yl)methoxy)-N,N-dimethylacetamide trifluoroacetic acid salt] the IC50 [1] was over 300 nM and the IC50 ([2]; read-out: SERT IC50) was 0.01 to 100 nM.

CN1CCC(COCc2nc3cc(C(F)(F)F)ccc3n2CC2CC2)(c2ccccc2)CC1 [Example 86, 1-(Cyclopropylmethyl)-2-(((1-methyl-4-phenylpiperidin-4-yl)methoxy)methyl)-5-(trifluoromethyl)-1H-benzo[d]imidazole] gave an IC50 [1] of over 300 nM and an IC50 ([2]; read-out: SERT IC50) of 0.01 to 100 nM.

CN1CCC(COCc2nc3cc(-c4ccc(C#N)cc4)ccc3n2CC2CC2)(c2ccccc2)CC1 [Example 81, 4-(1-(Cyclopropylmethyl)-2-(((1-methyl-4-phenylpiperidin-4-yl)methoxy)methyl)-1H-benzo[d]imidazol-5-yl)benzonitrile] showed an IC50 [1] of over 300 nM and an IC50 ([2]; read-out: SERT IC50) of 0.01 to 100 nM.

C[C@@H](OCC1(c2ccc(F)cc2)CCNCC1)c1cc(Br)cc2c(Br)n[nH]c12 [Example 101, (R)-3,5-Dibromo-7-(1-((4-(4-fluorophenyl)piperidin-4-yl)methoxy)ethyl)-1H-indazole] was tested, and the IC50 [1] was 0.01 to 100 nM and the IC50 ([2]; read-out: SERT IC50) was 0.01 to 100 nM.

Work on CC(OCC1(c2ccc(F)cc2)CCN(C)CC1)c1cc(C(F)(F)F)cc2cn[nH]c12 (single isomer, unassigned) [Example 23, 7-(1-((4-(4-Fluorophenyl)-1-methylpiperidin-4-yl)methoxy)ethyl)-5-(trifluoromethyl)-1H-indazole] yielded an IC50 [1] of 100 to 300 nM and an IC50 ([2]; read-out: SERT IC50) of 0.01 to 100 nM.

Work on Cn1cc2cc(-c3ccc(C#N)cc3)cc(COCC3(c4ccccc4)CCNCC3)c2n1 [Example 5, 4-(2-Methyl-7-(((4-phenylpiperidin-4-yl)methoxy)methyl)-2H-indazol-5-yl)benzonitrile] yielded an IC50 [1] of over 300 nM and an IC50 ([2]; read-out: SERT IC50) of 0.01 to 100 nM.

For CC(OCC1(c2ccc(F)cc2)CCN(C)CC1)c1cc(Cl)cc2c(Br)n[nH]c12 (racemic) [Example 57, (±)-3-Bromo-5-chloro-7-(1-((4-(4-fluorophenyl)-1-methylpiperidin-4-yl)methoxy)ethyl)-1H-indazole], the IC50 [1] was 0.01 to 100 nM and the IC50 ([2]; read-out: SERT IC50) was 0.01 to 100 nM.

CN1CCC(COCc2cc(-c3ccc(C#N)cc3)cc3cnn(C4CC4)c23)(c2ccccc2)CC1 [Example 65, 4-(1-Cyclopropyl-7-(((1-methyl-4-phenylpiperidin-4-yl)methoxy)methyl)-1H-indazol-5-yl)benzonitrile] was tested, and the IC50 [1] was 100 to 300 nM and the IC50 ([2]; SERT IC50 (nM)) was 0.01 to 100 nM.

Work on CN1CCC(COCc2cc(C(F)(F)F)cc3cn[nH]c23)(c2ccc(F)cc2)CC1 [Example 16, 7-(((4-(4-Fluorophenyl)-1-methylpiperidin-4-yl)methoxy)methyl)-5-(trifluoromethyl)-1H-indazole] yielded an IC50 [1] of 0.01 to 100 nM and an IC50 ([2]; read-out: SERT IC50) of 0.01 to 100 nM.

For C[C@@H](OCC1(c2ccccc2)CCNCC1)c1cc(Cl)cc2c(Cl)n[nH]c12 [Example 119, (R)-3,5-dichloro-7-(1-((4-phenylpiperidin-4yl)methoxy)ethyl)-1H-indazole], the IC50 [1] was 0.01 to 100 nM and the IC50 ([2]; read-out: SERT IC50) was 0.01 to 100 nM.

For CN1CCC(COCc2cc(C(F)(F)F)cc3cn(C)nc23)(c2ccccc2)CC1 [Example 14, 2-Methyl-7-(((1-methyl-4-phenylpiperidin-4-yl)methoxy)methyl)-5-(trifluoromethyl)-2H-indazole], the IC50 [1] was 0.01 to 100 nM and the IC50 ([2]; read-out: SERT IC50) was 0.01 to 100 nM.

CCC(OCC1(c2ccc(F)cc2)CCN(C)CC1)c1cc(Cl)cc2cn[nH]c12 (stereo not drawn) [Example 115, 5-chloro-7-(1-((4-(4-fluorophenyl)-1-methylpiperidin-4-yl)methoxy)propyl)-1H-indazole] was tested, and the IC50 [1] was 0.01 to 100 nM and the IC50 ([2]; read-out: SERT IC50) was 0.01 to 100 nM.

CC(OCC1(c2ccc(F)cc2)CCN(C)CC1)c1cc(C(F)(F)F)cc2[nH]ccc12 (racemic) [Example 128, (±)-4-(1-((4-(4-fluorophenyl)-1-methylpiperidin-4-yl)methoxy)ethyl)-6-(trifluoromethyl)-1H-indole] was tested, and the IC50 [1] was 0.01 to 100 nM and the IC50 ([2]; read-out: SERT IC50) was 0.01 to 100 nM.

C[C@@H](OCC1(c2ccc(F)cc2)CCN(C)CC1)c1cc(Cl)cc2c(Cl)n[nH]c12 [Example 100, (R)-3,5-Dichloro-7-(1-((4-(4-fluorophenyl)-1-methylpiperidin-4-yl)methoxy)ethyl)-1H-indazole] showed an IC50 [1] of 0.01 to 100 nM and an IC50 ([2]; read-out: SERT IC50) of 0.01 to 100 nM.

Cc1n[nH]c2c(C(C)OCC3(c4ccc(F)cc4)CCN(C)CC3)cc(Cl)cc12 (racemic) [Example 55, (±)-5-Chloro-7-(1-((4-(4-fluorophenyl)-1-methylpiperidin-4-yl)methoxy)ethyl)-3-methyl-1H-indazole] gave an IC50 [1] of 0.01 to 100 nM and an IC50 ([2]; read-out: SERT IC50) of 0.01 to 100 nM.

Compound C[C@@H](OCC1(c2ccc(F)cc2)CCN(C)CC1)c1cc(Br)cc2c(Br)n[nH]c12 [Example 102, (R)-3,5-Dibromo-7-(1-((4-(4-fluorophenyl)-1-methylpiperidin-4-yl)methoxy)ethyl)-1H-indazole] has an IC50 [1] of 0.01 to 100 nM and an IC50 ([2]; read-out: SERT IC50) of 0.01 to 100 nM.

CN1CCC(COCc2nc3cc(Br)ccc3n2CC2CC2)(c2ccccc2)CC1 [Example 82, 5-Bromo-1-(cyclopropylmethyl)-2-(((1-methyl-4-phenylpiperidin-4-yl)methoxy)methyl)-1H-benzo[d]imidazole] gave an IC50 [1] of over 300 nM and an IC50 ([2]; read-out: SERT IC50) of 0.01 to 100 nM.

In the case of C[C@H](OCC1(c2ccc(F)cc2)CCN(C)CC1)c1cc(Cl)cc2c(Cl)n[nH]c12 [Example 122, (S)-3,5-dichloro-7-(1-((4-(4-fluorophenyl)-1-methylpiperidin-4-yl)methoxy)ethyl)-1h-indazole], the IC50 [1] is reported as over 300 nM and the IC50 ([2]; read-out: SERT IC50) is reported as 0.01 to 100 nM.

CN1CCC(COCc2cc(C(F)(F)F)cc3nnn(C)c23)(c2ccc(F)cc2)CC1 [Example 78, 7-(((4-(4-Fluorophenyl)-1-methylpiperidin-4-yl)methoxy)methyl)-1-methyl-5-(trifluoromethyl)-1H-benzo[d][1,2,3]triazole] was tested, and the IC50 [1] was 100 to 300 nM and the IC50 ([2]; read-out: SERT IC50) was 0.01 to 100 nM.

In the case of Cc1cc(C(C)OCC2(c3ccc(F)cc3)CCN(C)CC2)c2c(cnn2CC(F)F)c1 (racemic) [Example 60, (±)-1-(2,2-Difluoroethyl)-7-(1-((4-(4-fluorophenyl)-1-methylpiperidin-4-yl)methoxy)ethyl)-5-methyl-1H-indazole], the IC50 [1] is reported as 0.01 to 100 nM and the IC50 ([2]; read-out: SERT IC50) is reported as 0.01 to 100 nM.

COc1cc(C(C)OCC2(c3ccc(F)cc3)CCN(C)CC2)c2[nH]ncc2c1 (racemic) [Example 52, (±)-7-(1-((4-(4-Fluorophenyl)-1-methylpiperidin-4-yl)methoxy)ethyl)-5-methoxy-1H-indazole] showed an IC50 [1] of 0.01 to 100 nM and an IC50 ([2]; read-out: SERT IC50) of 0.01 to 100 nM.

Work on COC(=O)C(OCC1(c2ccc(F)cc2)CCN(C)CC1)c1cc(Cl)cc2cn[nH]c12 (stereo not drawn) [Example 89, Methyl 2-(5-chloro-1H-indazol-7-yl)-2-((4-(4-fluorophenyl)-1-methylpiperidin-4-yl)methoxy)acetate trifluoroacetic acid salt] yielded an IC50 [1] of over 300 nM and an IC50 ([2]; read-out: SERT IC50) of 0.01 to 100 nM.

In the case of CN1CCC(COCc2nc3cc(-c4ccc(Cl)cc4Cl)ccc3n2CC2CC2)(c2ccccc2)CC1 [Example 84, 1-(Cyclopropylmethyl)-5-(2,4-dichlorophenyl)-2-(((1-methyl-4-phenylpiperidin-4-yl)methoxy)methyl)-1H-benzo[d]imidazole], the IC50 [1] is reported as over 300 nM and the IC50 ([2]; read-out: SERT IC50) is reported as 0.01 to 100 nM.

CC(OCC1(c2ccccc2)CCN(C)CC1)c1cc(C(F)(F)F)cc2c(C#N)n[nH]c12 (racemic) [Example 42, (±)-7-(1-((1-methyl-4-phenylpiperidin-4-yl)methoxy)ethyl)-5-(trifluoromethyl)-1H-indazole-3-carbonitrile] was tested, and the IC50 [1] was 0.01 to 100 nM and the IC50 ([2]; read-out: SERT IC50) was 100 to 300 nM.

CN1CCC(COCc2cc(C(F)(F)F)cc3ccn(C)c23)(c2ccc(F)cc2)CC1 [Example 69, 1-Methyl-7-(((1-methyl-4-(4-fluorophenyl)piperidin-4-yl)methoxy)methyl)-5-(trifluoromethyl)-1H-indole] was tested, and the IC50 [1] was 0.01 to 100 nM and the IC50 ([2]; read-out: SERT IC50) was 0.01 to 100 nM.

CC(OCC1(c2ccc(F)cc2)CCN(C)CC1)c1cc(Cl)cc2c(C#N)c[nH]c12 (racemic) [Example 124, (±)-5-chloro-7-(1-((4-(4-fluorophenyl)-1-methylpiperidin-4-yl)methoxy)ethyl)-1H-indole-3-carbonitrile] was tested, and the IC50 [1] was 0.01 to 100 nM and the IC50 ([2]; read-out: SERT IC50) was 0.01 to 100 nM.

Work on C[C@@H](OCC1(c2ccc(F)cc2)CCN(C)CC1)c1cc(Cl)cc2c(Cl)n(CC(F)(F)F)nc12 [Example 116, (R)-3,5-dichloro-7-(1-((4-(4-fluorophenyl-1-methyl)piperidine-4-yl)methoxy)ethyl)-2-(2,2,2-trifluoroethyl)-2H-indazole] yielded an IC50 [1] of 0.01 to 100 nM and an IC50 ([2]; read-out: SERT IC50) of 0.01 to 100 nM.

In the case of CC(OCC1(c2ccc(F)cc2)CCN(C)CC1)c1cc(C(F)(F)F)cc2c1ncn2CC1CC1 (single isomer, unassigned) [Example 133], the IC50 [1] is reported as over 300 nM and the IC50 ([2]; read-out: SERT IC50) is reported as 0.01 to 100 nM.

— patent US8026257B2 (Bristol-Myers Squibb Company, priority 2007, dated 2011)
